In the NIST ThermoML archive (doi:10.1021/je400408w):

Key:
[1] = molar heat capacity at constant pressure; xn = mol fraction of the nth substance listed; details: 100 kPa, Liquid
[2] = 101.33 kPa, Liquid; for speed of sound: Pulse-echo method; for mass density: Vibrating tube method
[3] = molar heat capacity at constant pressure; details: 100 kPa, Liquid

Cc1cccc(Cl)c1 [3-chlorotoluene] + CN1CCCC1=O
molar heat capacity at constant pressure [J/K/mol], [1]
Details	293.15 K	298.15 K	303.15 K
x2 = 0	175.21	176.46	177.67
x2 = 0.0566	176.9	178.51	180.44
x2 = 0.0976	178.07	179.91	182.2
x2 = 0.1345	179.19	181.07	183.53
x2 = 0.1724	180.12	182.1	184.76
x2 = 0.2187	181.31	183.26	186.04
x2 = 0.2565	182.12	184.06	186.9
x2 = 0.2934	182.85	184.82	187.61
x2 = 0.3342	183.56	185.46	188.27
x2 = 0.3745	184.2	185.98	188.79
x2 = 0.4187	184.71	186.4	189.2
x2 = 0.4568	184.96	186.73	189.36
x2 = 0.4986	185.09	186.84	189.47
x2 = 0.5386	185.06	186.75	189.31
x2 = 0.5783	184.78	186.58	189.08
x2 = 0.6112	184.42	186.25	188.68
x2 = 0.6542	183.69	185.54	187.92
x2 = 0.6923	182.87	184.66	187.08
x2 = 0.7328	181.83	183.55	185.83
x2 = 0.7786	179.95	181.8	183.95
x2 = 0.8189	178.11	180	182.01
x2 = 0.8324	177.43	179.29	181.17
x2 = 0.8621	175.85	177.56	179.36
x2 = 0.9078	172.92	174.43	175.98
x2 = 0.9427	170.28	171.62	172.92

Cc1cccc(Cl)c1 [3-chlorotoluene]
Details	mass density, 293.15 K [kg/m3]	mass density, 298.15 K [kg/m3]	mass density, 303.15 K [kg/m3]	molar heat capacity at constant pressure, 293.15 K [J/K/mol]	molar heat capacity at constant pressure, 298.15 K [J/K/mol]	molar heat capacity at constant pressure, 303.15 K [J/K/mol]	speed of sound, 293.15 K [m/s]	speed of sound, 298.15 K [m/s]	speed of sound, 303.15 K [m/s]
[2]	1072.12	1067.23	1062.33	–	–	–	1313.6	1295.5	1277.3
[3]	–	–	–	175.21	176.46	177.67	–	–	–

CN1CCCC1=O [N-methylpyrrolidone] + Cc1ccc(Cl)cc1
[1], x1 = 1
Details	molar heat capacity at constant pressure [J/K/mol]
293.15 K	165.44
298.15 K	166.22
303.15 K	166.92

CN1CCCC1=O [N-methylpyrrolidone] + Cc1cccc(Cl)c1
[1], x1 = 1
Details	molar heat capacity at constant pressure [J/K/mol]
293.15 K	165.44
298.15 K	166.22
303.15 K	166.92

Cc1ccc(Cl)cc1 [4-chlorotoluene] + O=C1CCCN1
molar heat capacity at constant pressure [J/K/mol], [1]
Details	293.15 K	298.15 K	303.15 K
x2 = 0	175.66	177.95	180.37
x2 = 0.0386	175.99	178.08	180.47
x2 = 0.0724	176.3	178.23	180.58
x2 = 0.1123	176.65	178.52	180.66
x2 = 0.1526	177.03	178.78	180.84
x2 = 0.1926	177.35	179.04	180.93
x2 = 0.2317	177.67	179.22	181.06
x2 = 0.2725	177.98	179.48	181.12
x2 = 0.3126	178.18	179.64	181.1
x2 = 0.3516	178.38	179.7	181.14
x2 = 0.3916	178.43	179.77	181.06
x2 = 0.4332	178.43	179.72	180.88
x2 = 0.4753	178.35	179.67	180.61
x2 = 0.5121	178.24	179.47	180.38
x2 = 0.5512	177.97	179.17	180.03
x2 = 0.5925	177.61	178.79	179.53
x2 = 0.6325	177.15	178.25	179.05
x2 = 0.6715	176.58	177.74	178.48
x2 = 0.7122	175.92	176.99	177.81
x2 = 0.7534	175.18	176.18	177
x2 = 0.7921	174.31	175.32	176.22
x2 = 0.8324	173.32	174.4	175.34
x2 = 0.8731	172.28	173.34	174.46
x2 = 0.9123	171.14	172.21	173.5
x2 = 0.9543	169.86	171	172.43

O=C1CCCN1 [2-pyrrolidinone] + Cc1cccc(Cl)c1
[1], x1 = 1
Details	molar heat capacity at constant pressure [J/K/mol]
293.15 K	168.36
298.15 K	169.55
303.15 K	171.18

O=C1CCCN1 [2-pyrrolidinone] + Cc1ccccc1Cl
[1], x1 = 1
Details	molar heat capacity at constant pressure [J/K/mol]
293.15 K	168.36
298.15 K	169.55
303.15 K	171.18

Cc1ccccc1Cl [2-chlorotoluene] + CN1CCCC1=O
molar heat capacity at constant pressure [J/K/mol], [1]
Details	293.15 K	298.15 K	303.15 K
x2 = 0	176.43	178.21	180.01
x2 = 0.0766	177.61	179.54	181.65
x2 = 0.1176	178.19	180.12	182.31
x2 = 0.1545	178.64	180.7	182.82
x2 = 0.1932	179.13	181.09	183.22
x2 = 0.2387	179.69	181.63	183.63
x2 = 0.2768	180.04	181.98	183.93
x2 = 0.3121	180.38	182.21	184.15
x2 = 0.3543	180.68	182.53	184.34
x2 = 0.3871	180.8	182.64	184.39
x2 = 0.4267	180.94	182.73	184.44
x2 = 0.4653	180.97	182.78	184.48
x2 = 0.5065	180.95	182.72	184.39
x2 = 0.5412	180.74	182.59	184.2
x2 = 0.5849	180.46	182.25	183.84
x2 = 0.6219	180.05	181.77	183.46
x2 = 0.6618	179.44	181.22	182.89
x2 = 0.7064	178.51	180.31	182.03
x2 = 0.7417	177.61	179.4	181.15
x2 = 0.7817	176.49	178.16	179.97
x2 = 0.8213	175.04	176.75	178.4
x2 = 0.8543	173.73	175.32	176.97
x2 = 0.8886	172.09	173.57	175.14
x2 = 0.9133	170.81	172.18	173.6
x2 = 0.9476	168.91	170.02	171.22

CN1CCCC1=O [N-methylpyrrolidone] + Cc1ccccc1Cl
[1], x1 = 1
Details	molar heat capacity at constant pressure [J/K/mol]
293.15 K	165.44
298.15 K	166.22
303.15 K	166.92

CN1CCCC1=O [N-methylpyrrolidone]
Details	mass density, 293.15 K [kg/m3]	mass density, 298.15 K [kg/m3]	mass density, 303.15 K [kg/m3]	molar heat capacity at constant pressure, 293.15 K [J/K/mol]	molar heat capacity at constant pressure, 298.15 K [J/K/mol]	molar heat capacity at constant pressure, 303.15 K [J/K/mol]	speed of sound, 293.15 K [m/s]	speed of sound, 298.15 K [m/s]	speed of sound, 303.15 K [m/s]
[2]	1033.28	1028.26	1023.49	–	–	–	1565.6	1546.1	1527.3
[3]	–	–	–	165.44	166.22	166.92	–	–	–

O=C1CCCN1 [2-pyrrolidinone]
Details	mass density, 293.15 K [kg/m3]	mass density, 298.15 K [kg/m3]	mass density, 303.15 K [kg/m3]	molar heat capacity at constant pressure, 293.15 K [J/K/mol]	molar heat capacity at constant pressure, 298.15 K [J/K/mol]	molar heat capacity at constant pressure, 303.15 K [J/K/mol]	speed of sound, 293.15 K [m/s]	speed of sound, 298.15 K [m/s]	speed of sound, 303.15 K [m/s]
[2]	1111.28	1107.15	1103.06	–	–	–	1651.4	1635	1618.7
[3]	–	–	–	168.36	169.55	171.18	–	–	–

Cc1ccc(Cl)cc1 [4-chlorotoluene]
Details	mass density, 293.15 K [kg/m3]	mass density, 298.15 K [kg/m3]	mass density, 303.15 K [kg/m3]	molar heat capacity at constant pressure, 293.15 K [J/K/mol]	molar heat capacity at constant pressure, 298.15 K [J/K/mol]	molar heat capacity at constant pressure, 303.15 K [J/K/mol]	speed of sound, 293.15 K [m/s]	speed of sound, 298.15 K [m/s]	speed of sound, 303.15 K [m/s]
[2]	1069.27	1064.37	1059.46	–	–	–	1306.5	1288.4	1270.3
[3]	–	–	–	175.66	177.95	180.37	–	–	–
